Laboratory results as given in US12037324B2, “Biarylmethyl heterocycles” (Université de Montréal, priority 2016, dated 2024).

Columns and labels:
Type in all cases: cell-based
AGTR1 = target: T1, AGTR1 (Homo sapiens, UniProt P30556); experiment: DiscoveRx β-arrestin2 recruitment assay (enzyme complementation, Pathunter CHO-K1 AGTR1 β-arrestin cell line); conditions: DiscoveRx β-arrestin2 recruitment
T1 construct: host or cells: Pathunter CHO-K1 AGTR1 β-arrestin cell line (CHO-K1)
T1 sequence (P30556 1-359): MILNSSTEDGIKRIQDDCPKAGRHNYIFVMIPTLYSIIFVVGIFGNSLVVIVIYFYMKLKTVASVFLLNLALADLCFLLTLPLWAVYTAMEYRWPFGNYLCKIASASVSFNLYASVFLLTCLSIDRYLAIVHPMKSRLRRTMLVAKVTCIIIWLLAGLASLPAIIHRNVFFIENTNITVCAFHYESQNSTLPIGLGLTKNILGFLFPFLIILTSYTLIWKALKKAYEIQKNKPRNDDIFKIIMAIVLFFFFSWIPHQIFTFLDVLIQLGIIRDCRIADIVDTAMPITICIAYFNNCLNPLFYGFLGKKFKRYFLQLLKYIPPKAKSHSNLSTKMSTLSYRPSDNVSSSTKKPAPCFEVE
In short: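 Chemiluminescent enzyme-complementation read-out of β-arrestin2 recruitment to AGTR1 in engineered CHO-K1 cells after 90 min compound exposure at 37° C. Values are 4-parameter logistic EC50s in agonist mode, IC50s in antagonist mode, with efficacy relative to the maximal All response.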

hAT1R [1] = target: T2, hAT1R (Homo sapiens, UniProt P30556); experiment: BRET β-arrestin2 biosensor assay, higher receptor expression (hAT1R 5 ng/well), HEK293 cells; conditions: for EC50: High AT1R Expression
T2 sequence (P30556 1-359): T1 sequence (P30556 1-359)

hAT1R [2] = target: T2, hAT1R; experiment: BRET Gq biosensor assay, agonist response, HEK293 cells; conditions: section of the 42nd table directly before the BRET P63 section
Description: BRET β-arrestin2 and Gq Activation Assays
In another aspect of the invention, association of the ATIR with signaling proteins is assessed using bioluminescence resonance energy transfer assays (Stephane Angers, Ali Salahpour et al. 2002). This technology measures the association between bioluminescent and fluorescent protein tags.
Several of the plasmid constructs used in BRET experiments were previously described. Briefly, the coding sequence of β-arrestin2 was fused to Renilla luciferase II to generate β-arrestin2-Rluc (Quoyer, Janz et al. 2013). The membrane targeting motif from K-Ras, CAAX motif (GKKKKKKSKTKCVIM), was fused to Renilla GFP to create rGFP-CAAX plasmid (Namkung Y et al., Nat Commun (2016) 7, 12178). The Renilla luciferase II was inserted in the Gaq protein to generate Gaq-Rluc (Breton, Sauvageau et al. 2010). The Gγ1 protein was tagged with GFP10 to obtain GFP-Gyl, using the same strategy described previously for GFP-Gy2 (Gales, Rebois et al. 2005). The Gaq binding domain of the p63RhoGEF protein (amino acids 295-502) was fused to Renilla luciferase II to create P63-Rluc. Finally, the hAT1R plasmid construct encoding the receptor was generated by optimizing the coding sequence of human angiotensin II receptor (GeneOptimizer from ThermoFisher), and adding an artificial cleavable signal peptide from bovine prolactin ([…]) in N-terminus of the receptor to increase cell surface expression.
Gq Biosensor Assay HEK293 cells were cultured in DMEM supplemented with Penicillin-Streptomycin and 10% fetal bovine serum. Two days before the BRET experiment, HEK293 cells were transfected with hAT1R expression plasmid (200 ng/well) as well as Gaq-Rluc (100 ng/well), Gβ1 (375 ng/well) and GFP-Gγ1 (625 ng/well), using linear polyethylenimine 25 kDa (PEI) at a PEI:DNA ratio of 3:1. Transfected cells were directly seeded in 96-well plates, at a density of 35 000 cells per well, and maintained in culture for the next 48 h.
BRET experiments were carried out subsequently using the following procedures: cells were washed once with Tyrode's buffer (137 mM NaCl, 1 mM CaCl2, 0.9 mM KCl, […], 3.6 mM NaH2PO4, 5.5 mM glucose, 12 mM NaHCO3, and 25 mM HEPES, pH 7.4) and 90 μl of Tyrode's buffer was added to each well. Cells were equilibrated in their new buffer at room temperature for at least 30 minutes. Following the equilibration period, the coelenterazine substrate was first added to the cells, 10 μl per well of a 10×solution (prolume purple coelenterazine at a final concentration of 2 μM), immediately followed by compound addition using the HP D300 digital dispenser from Tecan (10 singlicate concentrations). Cells were incubated for 5 min at room temperature and BRET readings were then collected using a Synergy Neo Multi-Mode reader from BioTek with BRET2 filters 410/515, to record agonist response. […] A second reading was collected 5 min after this second addition, using the Synergy Neo Multi-Mode reader from BioTek with BRET2 filters 410/515, to record antagonist response. The BRET signal was determined by calculating the ratio of the light emitted by GFP (515 nm) over the light emitted by the Rluc (410 nm). To analyze agonist response, BRET signal values were converted into percentage of activation using the non-stimulated control as 0% and AngII maximal response as 100%. Sigmoidal concentration-response curves were generated with those normalized values using a 4-parameter logistic equation (IDBS ActivityBase software), to determine EC50 of the different compounds. In the case of antagonist response analysis, BRET signal values were converted into percentage of inhibition using the fixed dose of AngII (corresponding to the EC50) as 0% and non-stimulated control as 100%. Sigmoidal concentration-response curves were generated with those normalized values using a 4-parameter logistic equation (IDBS ActivityBase software), to determine IC50 of the different compounds.

| Structure (SMILES) | DiscoveRx β-arrestin2 Ymax (%) (AGTR1) | EC50 (AGTR1) | BRET β-Arrestin2 High AT1R Expression Ymax (%) (hAT1R [1]) | EC50 (hAT1R [1]) | EC50 (hAT1R [2]) | DiscoveRx β-arrestin2 Ymax (%) (AGTR1; maximal response) |
| --- | --- | --- | --- | --- | --- | --- |
| CCCCC(=O)N(Cc1ccc(-c2cc(-c3cc(F)cc(F)c3)ccc2-c2nn[nH]n2)cc1)[C@H](C(=O)O)C(C)C [Example 438, (S)-2-(N-((3″,5″-Difluoro-6′-(2H-tetrazol-5-yl)-[1,1′:3′,1″-terphenyl]-4-yl)methyl)pentanamido)-3-methylbutanoic acid] | 41.7% | 20.4 nM | 74.6% | 34.8 nM | 718 nM | – |
| CCCCC1=NC2(CCCC2)C(=O)N1Cc1ccc(-c2cc(Oc3ccccc3)ccc2-c2nnn[nH]2)cc1 [Example 454, 2-Butyl-3-((5′-phenoxy-2′-(1H-tetrazol-5-yl)-[1,1′-biphenyl]-4-yl)methyl)-1,3-diazaspiro[4.4]non-1-en-4-one] | 11.2% | 22.7 nM | 18.4% | 56.2 nM | > 100000 nM | – |
| CCCc1nc(CC)c(C(=O)NCC(F)(F)F)n1Cc1ccc(-c2cc(-c3ccccc3)ccc2-c2nn[nH]n2)cc1 [Example 397, 1-((6′-(2H-tetrazol-5-yl)-[1,1′:3′,1″-terphenyl]-4-yl)methyl)-4-ethyl-2-propyl-N-(2,2,2-trifluoroethyl)-1H-imidazole-5-carboxamide] | – | 78.2 nM | 87.9% | 80.9 nM | 124 nM | 46.5% |
| CCCCc1nc(Cl)c(C(N)=O)n1Cc1ccc(-c2cc(-c3ccccc3)ccc2-c2noc(=O)[nH]2)cc1 [Example 394] | – | 365 nM | 94.9% | 37.3 nM | 76.4 nM | 59.1% |
| CCCCc1ncc(C(=O)NC(C)(C)COC)n1Cc1ccc(-c2cc(-c3ccccc3)ccc2-c2nn[nH]n2)cc1 [Example 361] | – | 97.8 nM | 61.3% | 128 nM | 296 nM | 29.3% |
| CCCCc1ncc(C(=O)NC2CC3(CCC3)C2)n1Cc1ccc(-c2cc(-c3ccccc3)ccc2-c2nn[nH]n2)cc1 [Example 351] | – | 18 nM | 89.6% | 38.9 nM | 81.1 nM | 45.4% |
| CCCCc1ncc(C(=O)Nc2ccncc2C)n1Cc1ccc(-c2cc(-c3ccccc3)ccc2-c2nn[nH]n2)cc1 [Example 375] | – | 89.7 nM | 55.7% | 89.4 nM | 273 nM | 35.8% |
| CCCCc1ncc(C(=O)NCCOC)n1Cc1ccc(-c2cc(-c3ccccc3)ccc2-c2nn[nH]n2)cc1 [Example 374] | – | 10.5 nM | 94.4% | 13.4 nM | 16.2 nM | 44.3% |
| CCCCC(=O)N(Cc1ccc(-c2cc(-c3ccccc3)ccc2-c2nn[nH]n2)cc1)[C@]1(C(=O)O)CC[C@@H](O)CC1 [Example 283, (1R,4R)-1-(N-((6′-(2H-Tetrazol-5-yl)-[1,1′:3′,1″-terphenyl]-4-yl)methyl)pentan-amido)-4-hydroxycyclohexanecarboxylic acid] | – | 44.5 nM | 88.5% | 22.8 nM | 155 nM | 57.5% |
| CCCc1nc(CC)c(C(=O)O)n1Cc1ccc(-c2cc(-c3ccccc3)ccc2-c2noc(=O)[nH]2)cc1 [Example 399] | – | 13.4 nM | 92.1% | 7.2 nM | 1170 nM | 45.8% |
| CCCc1nc(C(C)(C)O)c(C(=O)OCC)n1Cc1ccc(-c2cc(-c3ccccc3)ccc2-c2nn[nH]n2)cc1 [Example 401, ethyl 1-((6′-(2H-tetrazol-5-yl)-[1,1′:3′,1″-terphenyl]-4-yl)methyl)-4-(2-hydroxypropan-2-yl)-2-propyl-1H-imidazole-5-carboxylate] | – | 544 nM | 74.5% | 256 nM | 2240 nM | 43.7% |
| CCCCc1ncc(C(=O)NCC)n1Cc1ccc(-c2cc(-c3ccccc3)ccc2-c2nn[nH]n2)cc1 [Example 379] | – | 21.2 nM | 72.7% | 56.3 nM | 106 nM | 30.2% |
| CCCc1nc(CC)c(C(N)=O)n1Cc1ccc(-c2cc(-c3ccccc3)ccc2-c2nn[nH]n2)cc1 [Example 398, 1-((6′-(2H-tetrazol-5-yl)-[1,1′:3′,1″-terphenyl]-4-yl)methyl)-4-ethyl-2-propyl-1H-imidazole-5-carboxamide] | – | 12.7 nM | 91.0% | 13.4 nM | 35.1 nM | 53.6% |
| CCCCc1ncc(C(=O)N2CCCC2)n1Cc1ccc(-c2cc(-c3ccccc3)ccc2-c2nn[nH]n2)cc1 [Example 347] | – | 57.2 nM | 48.8% | 172 nM | 242 nM | 26.8% |
| CCCCC(=O)N(Cc1ccc(-c2cc(-c3cnn(C)c3)ccc2-c2nn[nH]n2)cc1)C1(C(=O)O)CCCCC1 [Example 288, 1-(N-((5′-(1-Methyl-1H-pyrazol-4-yl)-2′-(2H-tetrazol-5-yl)-[1,1′-biphenyl]-4-yl)methyl)pentanamido)cyclohexanecarboxylic acid] | – | 186 nM | 69.2% | 474 nM | > 100000 nM | 29.6% |
| CCCCc1ncc(C(=O)NCCO)n1Cc1ccc(-c2cc(-c3ccccc3)ccc2C(=O)O)cc1 [Example 414] | – | 166 nM | 36.4% | 505 nM | 460 nM | 21.5% |
| CCCc1nc(CC)c(C(=O)O)n1Cc1ccc(-c2cc(-c3ccccc3)ccc2C(=O)O)cc1 [Example 400, 1-((6′-carboxy-[1,1′:3′,1″-terphenyl]-4-yl)methyl)-4-ethyl-2-propyl-1H-imidazole-5-carboxylic acid] | – | 150 nM | 88.3% | 172 nM | 892 nM | 40.4% |
| CCCCc1nc(Cl)c(C(=O)O)n1Cc1ccc(-c2cc(-c3cncc(OC)c3)ccc2-c2nn[nH]n2)cc1 [Example 385] | – | 31.4 nM | 87.0% | 57.1 nM | 1110 nM | 35.4% |
